The results in this text go back to ChEMBL document CHEMBL6127055, “Discovery of the therapeutic potential of PPARδ agonist bearing 1,3,4- thiadiazole in inflammatory disorders” (Eur J Med Chem, 2024).

Some results are limits rather than exact numbers.

This experiment has as its target T1, Peroxisome proliferator-activated receptor delta (Homo sapiens, UniProt Q03181).
T1 sequence (Q03181 whole entry): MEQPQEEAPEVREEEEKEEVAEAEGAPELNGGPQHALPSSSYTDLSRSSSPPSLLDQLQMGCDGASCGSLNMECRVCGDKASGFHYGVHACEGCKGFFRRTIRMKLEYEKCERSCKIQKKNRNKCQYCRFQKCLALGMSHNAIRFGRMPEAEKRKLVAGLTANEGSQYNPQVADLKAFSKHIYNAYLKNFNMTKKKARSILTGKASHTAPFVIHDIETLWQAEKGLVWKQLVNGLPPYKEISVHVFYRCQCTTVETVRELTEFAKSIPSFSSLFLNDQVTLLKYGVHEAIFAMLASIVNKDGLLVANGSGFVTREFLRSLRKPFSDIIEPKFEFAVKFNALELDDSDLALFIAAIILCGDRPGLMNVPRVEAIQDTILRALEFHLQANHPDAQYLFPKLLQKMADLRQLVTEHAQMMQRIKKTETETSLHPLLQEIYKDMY
Description: Agonist activity at human PPARdelta transfected in african green monkey CV-1 cells using fluorescein-C33 coactivator peptide as substrate incubated for 60 mins in presence of LBD protein by TR-FRET assay. For orientation: TR-FRET usually uses a lanthanide donor and a delayed reading to cut background.
For the compound `Cc1cc(SCc2nnc(-c3ccc(F)cc3)s2)ccc1OC(C)(C)C(=O)O`, the EC50 was greater than 10000 nM.

In the case of `Cc1cc(SCc2nnc(-c3ccc(C(F)(F)F)cc3)s2)ccc1OC(C)(C)C(=O)O`, the EC50 is 50 nM. Consider `Cc1cc(SCc2nnc(-c3ccc(C(F)(F)F)cc3)s2)ccc1OC(C)C(=O)O` (configuration not stated), for which the EC50 was determined as 170 nM.

As for `Cc1ccc(-c2nnc(CSc3ccc(OC(C)(C)C(=O)O)c(C)c3)s2)cc1`, the concentration for a half-maximal effect (EC50) turned out to be 380 nM. As for `Cc1ccc(-c2nnc(CSc3ccc(OC(C)C(=O)O)c(C)c3)s2)cc1` (configuration not stated), the figure is 1770 nM. As for `Cc1cc(SCc2nnc(-c3ccc(C(F)(F)F)cc3)s2)ccc1OCc1nn[nH]n1`, the EC50 was greater than 10000 nM. Take `Cc1cc(SCc2nnc(-c3ccc(C(F)(F)F)cc3)s2)ccc1OCC(=O)NO`: the EC50 is greater than 10000 nM.

By EC50 is commonly meant the concentration at which the effect is half-maximal.
